{"source": "patent US11033592B2", "about": "“Composition for the prevention and/or treatment of cardiovascular diseases” (priority 2016, dated 2021)", "origin": "cited, not measured here", "system": "first occurrence of cardiovascular events", "conditions": "CRESTOR 20 mg versus placebo, P<0.00001"}
{"smiles": "CC(C)c1nc(N(C)S(C)(=O)=O)nc(-c2ccc(F)cc2)c1/C=C/[C@@H](O)C[C@@H](O)CC(=O)O", "note": "[CRESTOR, rosuvastatin]", "values": [{"measurement": "relative reduction in risk of a major cardiovascular event", "result": 44, "unit": "%"}]}
